Assay results published in ChEMBL document CHEMBL5442741, “ASAP - In vitro kinase profile” (2024).
Values joined by “and” are separate entries in the source; they are usually repeats but may differ in a detail not shown here. Equal values may be shown once.

Tests used:
[1] = biological target: Glycogen synthase kinase-3 beta (Homo sapiens) (UniProt P49841); experiment: Enzymatic radiometric [Km ATP] KinaseProfiler LeadHunter assay, kinase: GSK3-beta, catalogue number: 14-306KP The assay has been performed by Eurofins Discovery.; details: ATP concentration 15.0 uM, Test compound concentration 10.0 uM
Glycogen synthase kinase-3 beta (Homo sapiens), sequence (P49841 whole entry, looked up): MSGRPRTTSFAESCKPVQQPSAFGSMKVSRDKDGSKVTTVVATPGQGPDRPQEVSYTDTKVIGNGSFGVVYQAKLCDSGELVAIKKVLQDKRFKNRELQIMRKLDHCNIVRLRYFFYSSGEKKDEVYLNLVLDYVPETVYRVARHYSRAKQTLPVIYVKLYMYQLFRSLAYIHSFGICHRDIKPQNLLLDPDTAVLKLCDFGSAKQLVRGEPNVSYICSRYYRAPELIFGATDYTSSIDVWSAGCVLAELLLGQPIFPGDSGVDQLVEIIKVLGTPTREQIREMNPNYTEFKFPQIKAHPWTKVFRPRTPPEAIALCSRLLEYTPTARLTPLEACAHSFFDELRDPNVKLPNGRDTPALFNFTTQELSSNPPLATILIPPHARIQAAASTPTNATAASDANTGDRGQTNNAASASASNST

[2] = biological target: T1, Tyrosine-protein kinase receptor TYRO3 (Homo sapiens) (UniProt Q06418); experiment: Enzymatic radiometric [Km ATP] KinaseProfiler LeadHunter assay, kinase: Rse, catalogue number: 14-535KP The assay has been performed by Eurofins Discovery.; details: ATP concentration 45.0 uM, Test compound concentration 10.0 uM
T1 sequence (whole entry): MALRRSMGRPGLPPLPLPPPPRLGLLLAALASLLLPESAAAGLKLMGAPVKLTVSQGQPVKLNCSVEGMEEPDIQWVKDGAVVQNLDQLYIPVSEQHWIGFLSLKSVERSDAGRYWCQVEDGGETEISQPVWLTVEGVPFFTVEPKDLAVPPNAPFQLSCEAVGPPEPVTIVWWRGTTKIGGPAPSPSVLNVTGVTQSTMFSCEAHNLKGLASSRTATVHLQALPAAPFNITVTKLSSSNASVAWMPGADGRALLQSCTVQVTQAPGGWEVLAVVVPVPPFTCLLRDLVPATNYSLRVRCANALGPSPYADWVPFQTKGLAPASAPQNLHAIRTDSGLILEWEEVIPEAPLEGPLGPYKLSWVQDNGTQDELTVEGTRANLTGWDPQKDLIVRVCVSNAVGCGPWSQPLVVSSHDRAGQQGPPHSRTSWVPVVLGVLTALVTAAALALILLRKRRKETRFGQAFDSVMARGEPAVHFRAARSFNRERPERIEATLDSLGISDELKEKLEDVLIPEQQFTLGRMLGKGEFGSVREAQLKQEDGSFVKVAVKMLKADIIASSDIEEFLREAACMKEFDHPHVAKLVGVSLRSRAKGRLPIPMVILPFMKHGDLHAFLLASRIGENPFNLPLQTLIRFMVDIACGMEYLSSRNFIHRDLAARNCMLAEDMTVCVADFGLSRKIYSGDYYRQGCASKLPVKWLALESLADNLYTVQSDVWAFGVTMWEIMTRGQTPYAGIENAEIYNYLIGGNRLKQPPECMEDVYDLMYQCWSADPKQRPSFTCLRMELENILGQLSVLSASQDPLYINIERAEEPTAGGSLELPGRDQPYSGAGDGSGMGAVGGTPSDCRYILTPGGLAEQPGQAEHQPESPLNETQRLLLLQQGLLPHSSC

[3] = biological target: ALK tyrosine kinase receptor (Homo sapiens) (UniProt Q9UM73); experiment: Enzymatic radiometric [Km ATP] KinaseProfiler LeadHunter assay, kinase: ALK, catalogue number: 14-555KP The assay has been performed by Eurofins Discovery.; details: ATP concentration 200.0 uM, Test compound concentration 10.0 uM
[4] = biological target: Serine/threonine-protein kinase PLK3 (Homo sapiens) (UniProt Q9H4B4); experiment: Enzymatic radiometric [Km ATP] KinaseProfiler LeadHunter assay, kinase: Plk3, catalogue number: 14-572KP The assay has been performed by Eurofins Discovery.; details: ATP concentration 70.0 uM, Test compound concentration 10.0 uM
Serine/threonine-protein kinase PLK3 (Homo sapiens), sequence (Q9H4B4 whole entry, looked up): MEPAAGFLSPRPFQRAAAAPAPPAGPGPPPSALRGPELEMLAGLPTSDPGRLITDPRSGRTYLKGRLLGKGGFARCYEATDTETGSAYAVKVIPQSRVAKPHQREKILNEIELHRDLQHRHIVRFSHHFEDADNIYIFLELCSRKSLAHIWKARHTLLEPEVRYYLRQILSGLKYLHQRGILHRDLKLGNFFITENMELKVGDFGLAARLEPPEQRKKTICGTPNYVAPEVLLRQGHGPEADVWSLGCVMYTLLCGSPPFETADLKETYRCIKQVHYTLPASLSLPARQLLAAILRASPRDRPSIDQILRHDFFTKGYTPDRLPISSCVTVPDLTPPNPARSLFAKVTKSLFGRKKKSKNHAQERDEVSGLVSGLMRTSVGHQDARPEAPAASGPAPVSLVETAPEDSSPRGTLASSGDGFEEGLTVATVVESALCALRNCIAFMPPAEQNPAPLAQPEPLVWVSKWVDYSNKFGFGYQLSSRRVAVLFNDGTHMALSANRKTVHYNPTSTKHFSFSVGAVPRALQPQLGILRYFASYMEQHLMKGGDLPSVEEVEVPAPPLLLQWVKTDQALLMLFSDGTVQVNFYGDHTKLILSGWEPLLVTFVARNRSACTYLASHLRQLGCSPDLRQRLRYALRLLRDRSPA

[5] = biological target: Ribosomal protein S6 kinase alpha-4 (Homo sapiens) (UniProt O75676); experiment: Enzymatic radiometric [Km ATP] KinaseProfiler LeadHunter assay, kinase: MSK2, catalogue number: 14-616KP The assay has been performed by Eurofins Discovery.; details: ATP concentration 45.0 uM, Test compound concentration 10.0 uM
Ribosomal protein S6 kinase alpha-4 (Homo sapiens), sequence (O75676 whole entry, looked up): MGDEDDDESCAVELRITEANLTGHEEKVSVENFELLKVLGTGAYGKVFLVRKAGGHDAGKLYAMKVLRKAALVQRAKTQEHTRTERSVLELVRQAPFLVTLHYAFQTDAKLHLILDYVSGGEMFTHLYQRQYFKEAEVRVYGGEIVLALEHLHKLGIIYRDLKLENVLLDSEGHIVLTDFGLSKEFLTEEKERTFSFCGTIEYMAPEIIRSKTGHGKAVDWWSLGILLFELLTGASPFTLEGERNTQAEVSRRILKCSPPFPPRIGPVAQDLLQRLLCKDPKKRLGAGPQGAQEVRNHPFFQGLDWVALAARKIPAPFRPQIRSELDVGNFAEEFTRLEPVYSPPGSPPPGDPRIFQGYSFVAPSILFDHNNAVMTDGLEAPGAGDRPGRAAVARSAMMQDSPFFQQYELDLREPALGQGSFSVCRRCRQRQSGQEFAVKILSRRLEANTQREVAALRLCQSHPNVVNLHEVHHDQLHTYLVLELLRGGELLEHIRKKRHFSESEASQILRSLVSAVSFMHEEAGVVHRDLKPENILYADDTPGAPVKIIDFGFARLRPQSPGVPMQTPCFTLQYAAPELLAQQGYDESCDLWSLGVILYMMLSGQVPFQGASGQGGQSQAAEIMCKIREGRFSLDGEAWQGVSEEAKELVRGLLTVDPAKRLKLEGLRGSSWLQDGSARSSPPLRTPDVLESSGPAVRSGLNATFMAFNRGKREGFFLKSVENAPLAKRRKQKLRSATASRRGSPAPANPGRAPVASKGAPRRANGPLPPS

[6] = biological target: T2, Serine/threonine-protein kinase 4 (Homo sapiens) (UniProt Q13043); experiment: Enzymatic radiometric [Km ATP] KinaseProfiler LeadHunter assay, kinase: MST1, catalogue number: 14-624KP The assay has been performed by Eurofins Discovery.; details: ATP concentration 90.0 uM, Test compound concentration 10.0 uM
T2 sequence (whole entry): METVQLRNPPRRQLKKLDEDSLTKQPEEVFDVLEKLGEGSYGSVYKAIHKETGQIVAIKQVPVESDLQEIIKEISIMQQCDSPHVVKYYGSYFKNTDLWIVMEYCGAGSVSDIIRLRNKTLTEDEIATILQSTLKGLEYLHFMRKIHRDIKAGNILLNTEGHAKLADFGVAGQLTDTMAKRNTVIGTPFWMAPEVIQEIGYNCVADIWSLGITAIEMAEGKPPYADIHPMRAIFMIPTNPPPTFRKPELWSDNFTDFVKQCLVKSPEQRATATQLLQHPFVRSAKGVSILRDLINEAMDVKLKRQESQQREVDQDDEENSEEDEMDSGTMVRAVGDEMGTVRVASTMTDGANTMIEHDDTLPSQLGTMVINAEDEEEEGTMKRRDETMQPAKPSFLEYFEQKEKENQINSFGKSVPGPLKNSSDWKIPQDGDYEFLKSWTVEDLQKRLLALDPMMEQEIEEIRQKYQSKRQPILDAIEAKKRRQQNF

[7] = biological target: Ribosomal protein S6 kinase beta-1 (Homo sapiens) (UniProt P23443); experiment: Enzymatic radiometric [Km ATP] KinaseProfiler LeadHunter assay, kinase: p70S6K, catalogue number: 14-486KP The assay has been performed by Eurofins Discovery.; details: ATP concentration 15.0 uM, Test compound concentration 10.0 uM
Ribosomal protein S6 kinase beta-1 (Homo sapiens), sequence (P23443 whole entry, looked up): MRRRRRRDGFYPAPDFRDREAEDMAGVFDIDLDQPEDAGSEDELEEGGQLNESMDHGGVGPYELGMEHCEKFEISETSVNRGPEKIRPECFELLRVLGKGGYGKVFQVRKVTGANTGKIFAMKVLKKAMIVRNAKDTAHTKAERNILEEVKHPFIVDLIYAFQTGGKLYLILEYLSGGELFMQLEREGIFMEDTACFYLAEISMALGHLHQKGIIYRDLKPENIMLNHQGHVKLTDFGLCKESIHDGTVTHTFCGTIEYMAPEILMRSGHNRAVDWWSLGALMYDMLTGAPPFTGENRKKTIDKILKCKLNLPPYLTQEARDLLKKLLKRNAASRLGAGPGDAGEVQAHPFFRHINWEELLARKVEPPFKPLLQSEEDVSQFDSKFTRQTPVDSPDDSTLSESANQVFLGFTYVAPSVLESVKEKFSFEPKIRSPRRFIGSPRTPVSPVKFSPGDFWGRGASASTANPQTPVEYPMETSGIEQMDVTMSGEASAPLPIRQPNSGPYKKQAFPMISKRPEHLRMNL

[8] = biological target: Insulin-like growth factor 1 receptor (Homo sapiens) (UniProt P08069); experiment: Enzymatic radiometric [Km ATP] KinaseProfiler LeadHunter assay, kinase: IGF-1R, catalogue number: 14-465KP The assay has been performed by Eurofins Discovery.; details: ATP concentration 200.0 uM, Test compound concentration 10.0 uM
Insulin-like growth factor 1 receptor (Homo sapiens), sequence (P08069 31-736 limits assumed): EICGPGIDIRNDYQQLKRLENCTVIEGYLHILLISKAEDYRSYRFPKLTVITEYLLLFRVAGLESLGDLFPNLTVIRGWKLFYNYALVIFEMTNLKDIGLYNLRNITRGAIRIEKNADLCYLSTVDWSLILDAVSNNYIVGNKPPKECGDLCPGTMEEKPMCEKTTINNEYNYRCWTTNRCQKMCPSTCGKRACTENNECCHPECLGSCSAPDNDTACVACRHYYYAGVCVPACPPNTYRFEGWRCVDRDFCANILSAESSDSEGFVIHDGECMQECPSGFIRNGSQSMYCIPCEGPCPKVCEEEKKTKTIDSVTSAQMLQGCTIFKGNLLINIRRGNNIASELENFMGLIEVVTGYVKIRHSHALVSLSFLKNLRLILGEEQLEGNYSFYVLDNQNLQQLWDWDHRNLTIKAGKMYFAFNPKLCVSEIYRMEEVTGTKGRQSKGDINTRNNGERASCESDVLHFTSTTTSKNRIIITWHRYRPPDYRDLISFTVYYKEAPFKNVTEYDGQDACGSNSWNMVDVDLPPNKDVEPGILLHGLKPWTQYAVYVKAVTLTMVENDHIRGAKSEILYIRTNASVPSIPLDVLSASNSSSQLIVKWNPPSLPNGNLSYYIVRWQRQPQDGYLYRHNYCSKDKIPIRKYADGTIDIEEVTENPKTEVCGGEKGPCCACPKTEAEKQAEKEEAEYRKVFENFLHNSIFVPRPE
Insulin-like growth factor 1 receptor (Homo sapiens), sequence (P08069 741-1367 limits assumed): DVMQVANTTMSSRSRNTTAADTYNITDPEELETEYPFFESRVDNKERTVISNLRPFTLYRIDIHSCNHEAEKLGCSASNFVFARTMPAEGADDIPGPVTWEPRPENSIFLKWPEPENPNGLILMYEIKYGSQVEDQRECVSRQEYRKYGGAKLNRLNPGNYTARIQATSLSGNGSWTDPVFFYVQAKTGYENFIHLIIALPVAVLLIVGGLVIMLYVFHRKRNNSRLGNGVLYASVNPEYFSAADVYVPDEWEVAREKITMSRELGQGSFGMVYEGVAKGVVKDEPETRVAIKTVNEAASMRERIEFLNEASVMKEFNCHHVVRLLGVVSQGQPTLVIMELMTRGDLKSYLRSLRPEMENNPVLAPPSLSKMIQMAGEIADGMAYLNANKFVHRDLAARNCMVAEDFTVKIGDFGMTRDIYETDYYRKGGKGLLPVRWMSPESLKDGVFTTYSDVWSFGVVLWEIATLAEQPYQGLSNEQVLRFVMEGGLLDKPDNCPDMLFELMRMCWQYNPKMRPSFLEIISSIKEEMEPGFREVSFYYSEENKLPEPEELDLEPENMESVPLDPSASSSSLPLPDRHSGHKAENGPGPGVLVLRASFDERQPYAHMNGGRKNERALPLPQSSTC

Activity [1]	Activity [2]	Activity [3]	Activity [4]	Activity [5]	Activity [6]	Activity [7]	Activity [8]	SMILES
98%	89%	95%	98%	92%	112%	100%	105%	CNC(=O)Cn1cc(-c2cc3c(N[C@@H](c4ccc5c(c4)S(=O)(=O)CCC5)C(C)C)ncnc3[nH]2)cn1
93%	107%	106%	98%	93%	122%	104%	104%	CC(C)[C@@H](Nc1ncnc2[nH]c(C(=O)N[C@@H]3CCN(C)C3)cc12)c1ccc2c(c1)S(=O)(=O)CCC2
107%	115%	93%	103%	99%	88%	98%	88%	CC(C)[C@@H](Nc1ncnc2[nH]ccc12)c1ccc2c(c1)S(=O)(=O)CCC2
105%	88%	95%	102%	92%	98%	81%	106%	COc1ccc([C@@H](Cc2nnn[nH]2)NC(=O)c2ncnc3[nH]ccc23)cc1
94%	86%	100%	112%	92%	126%	103%	100%	CC(C)[C@H](Nc1ncnc2[nH]ccc12)c1ccc2c(c1)S(=O)(=O)CCC2
85% and 101%	116% and 107%	103% and 106%	90% and 89%	103% and 122%	103% and 121%	82% and 106%	108% and 94%	CC(C)[C@@H](Nc1ncnc2[nH]c(-c3cnn(C)c3C#N)cc12)c1ccc2c(n1)OCCO2
98%	105%	116%	102%	114%	120%	125%	85%	CC(C)[C@H](Nc1ncnc2[nH]c(-c3cnn(C)c3C#N)cc12)c1ccc2c(n1)OCCO2
98%	110%	117%	77%	122%	115%	108%	77%	Cn1ncc(-c2cc3c(N[C@@H](c4ccc5c(n4)OCCO5)C(C)(C)C)ncnc3[nH]2)c1C#N
92%	81%	99%	124%	91%	108%	110%	99%	CNCc1cc(-c2cc3c(N[C@@H](c4ccc5c(c4)S(=O)(=O)CCC5)C(C)C)ncnc3[nH]2)co1
96%	96%	99%	104%	105%	115%	108%	97%	Cc1nn(C)cc1-c1cc2c(N[C@H](c3ccc4c(c3)S(=O)(=O)CCC4)C(C)C)ncnc2[nH]1
90%	100%	106%	102%	103%	127%	113%	103%	COc1ccc([C@H](Cc2nnn[nH]2)NC(=O)c2ncnc3[nH]ccc23)cc1
93%	87%	99%	98%	90%	121%	97%	95%	C[C@H](C(=O)O)[C@@H](NC(=O)c1ncnc2[nH]ccc12)c1ccc(Br)cc1
